From patent US8426437B2, “Pyrroloquinoline derivatives and their use as protein kinases inhibitors” (Pierre Fabre Medicament, priority 2005, dated 2013) come the findings set out here.

Common to all, as to assay type: biochemical
Assay [1] has as its target T1, EGFR (h) (Homo sapiens, UniProt P00533).
T1 construct: purchased Upstate
The assay can be described thus: Upstate kinase panel: EGFR. As to the method: (§1) These kinases are produced by Upstate and screened according to the respective protocols indicated by the supplier (http://www.upstate.com/features/kp_protocols.asp). Examples 1, 12, 166 and 238 were tested at a concentration of 20 μM, 10 μM, 1 μM and 1 μM respectively in the presence of 10 μM of ATP for examples 1 and 12 and at the concentrations of ATP shown in parentheses for examples 166 and 238. The results shown in Table VII correspond to percentage inhibition of the kinase tested in the presence of the compound, relative to a control effected without the compound.

Assay [2] has as its target T2, cKit (h) (Homo sapiens, UniProt P10721).
T2 construct: purchased Upstate
In words: Upstate kinase panel: cKit. As to the method:
as §1

Assay [3] deals with T3, RET (Homo sapiens, UniProt P07949).
T3 construct: purchased Upstate 14-570MG
T3 sequence (P07949 29-1114): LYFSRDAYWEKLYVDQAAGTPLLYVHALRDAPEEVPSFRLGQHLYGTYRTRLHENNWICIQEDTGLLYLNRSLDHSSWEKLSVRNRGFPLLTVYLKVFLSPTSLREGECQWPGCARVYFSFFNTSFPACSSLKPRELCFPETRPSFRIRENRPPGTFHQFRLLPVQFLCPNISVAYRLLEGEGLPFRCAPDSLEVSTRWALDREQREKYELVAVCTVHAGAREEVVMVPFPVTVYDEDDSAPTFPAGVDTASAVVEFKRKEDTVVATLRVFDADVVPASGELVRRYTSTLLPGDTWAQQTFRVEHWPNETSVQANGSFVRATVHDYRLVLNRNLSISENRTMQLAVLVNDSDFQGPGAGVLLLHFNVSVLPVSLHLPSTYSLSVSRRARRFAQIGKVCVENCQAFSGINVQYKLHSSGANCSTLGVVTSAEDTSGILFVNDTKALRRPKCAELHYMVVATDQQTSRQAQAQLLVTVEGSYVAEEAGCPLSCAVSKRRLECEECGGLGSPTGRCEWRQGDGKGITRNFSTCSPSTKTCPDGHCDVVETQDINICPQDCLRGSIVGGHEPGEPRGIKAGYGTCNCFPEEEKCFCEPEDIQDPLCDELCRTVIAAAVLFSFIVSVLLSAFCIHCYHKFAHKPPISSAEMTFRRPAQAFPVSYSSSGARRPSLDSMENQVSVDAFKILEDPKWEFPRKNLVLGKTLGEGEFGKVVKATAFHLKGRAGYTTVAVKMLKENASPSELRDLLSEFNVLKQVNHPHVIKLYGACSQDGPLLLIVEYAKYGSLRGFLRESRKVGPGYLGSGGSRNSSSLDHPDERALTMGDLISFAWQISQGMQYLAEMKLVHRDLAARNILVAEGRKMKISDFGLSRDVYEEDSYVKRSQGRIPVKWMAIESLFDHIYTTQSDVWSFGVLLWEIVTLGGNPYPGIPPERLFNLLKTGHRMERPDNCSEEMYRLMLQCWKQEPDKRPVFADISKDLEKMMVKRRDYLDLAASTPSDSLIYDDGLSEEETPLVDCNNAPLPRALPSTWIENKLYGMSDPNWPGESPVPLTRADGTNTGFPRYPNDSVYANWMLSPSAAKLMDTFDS
In words: Inhibition of RET kinase activity, recombinant RET method (Kinase-Glo). To be noted: RET 2 μg/ml, poly-EY4 substrate, 20 μM ATP, two hours at 30° C. A digest of the protocol: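 Recombinant RET at 2 μg/ml in 20 mM MOPS/NaOH pH 7.0, 1 mM EDTA, 5% glycerol, 0.01% Brij35, 0.1% 2-mercaptoethanol, 1 mg/ml BSA; compounds 10 nM–30 μM final.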
In general terms: In Kinase-Glo more light means more ATP remaining.

The target of assay [4] is T4, KDR (h) (Homo sapiens, UniProt P35968).
T4 construct: purchased Upstate
T4 sequence (P35968 20-1356): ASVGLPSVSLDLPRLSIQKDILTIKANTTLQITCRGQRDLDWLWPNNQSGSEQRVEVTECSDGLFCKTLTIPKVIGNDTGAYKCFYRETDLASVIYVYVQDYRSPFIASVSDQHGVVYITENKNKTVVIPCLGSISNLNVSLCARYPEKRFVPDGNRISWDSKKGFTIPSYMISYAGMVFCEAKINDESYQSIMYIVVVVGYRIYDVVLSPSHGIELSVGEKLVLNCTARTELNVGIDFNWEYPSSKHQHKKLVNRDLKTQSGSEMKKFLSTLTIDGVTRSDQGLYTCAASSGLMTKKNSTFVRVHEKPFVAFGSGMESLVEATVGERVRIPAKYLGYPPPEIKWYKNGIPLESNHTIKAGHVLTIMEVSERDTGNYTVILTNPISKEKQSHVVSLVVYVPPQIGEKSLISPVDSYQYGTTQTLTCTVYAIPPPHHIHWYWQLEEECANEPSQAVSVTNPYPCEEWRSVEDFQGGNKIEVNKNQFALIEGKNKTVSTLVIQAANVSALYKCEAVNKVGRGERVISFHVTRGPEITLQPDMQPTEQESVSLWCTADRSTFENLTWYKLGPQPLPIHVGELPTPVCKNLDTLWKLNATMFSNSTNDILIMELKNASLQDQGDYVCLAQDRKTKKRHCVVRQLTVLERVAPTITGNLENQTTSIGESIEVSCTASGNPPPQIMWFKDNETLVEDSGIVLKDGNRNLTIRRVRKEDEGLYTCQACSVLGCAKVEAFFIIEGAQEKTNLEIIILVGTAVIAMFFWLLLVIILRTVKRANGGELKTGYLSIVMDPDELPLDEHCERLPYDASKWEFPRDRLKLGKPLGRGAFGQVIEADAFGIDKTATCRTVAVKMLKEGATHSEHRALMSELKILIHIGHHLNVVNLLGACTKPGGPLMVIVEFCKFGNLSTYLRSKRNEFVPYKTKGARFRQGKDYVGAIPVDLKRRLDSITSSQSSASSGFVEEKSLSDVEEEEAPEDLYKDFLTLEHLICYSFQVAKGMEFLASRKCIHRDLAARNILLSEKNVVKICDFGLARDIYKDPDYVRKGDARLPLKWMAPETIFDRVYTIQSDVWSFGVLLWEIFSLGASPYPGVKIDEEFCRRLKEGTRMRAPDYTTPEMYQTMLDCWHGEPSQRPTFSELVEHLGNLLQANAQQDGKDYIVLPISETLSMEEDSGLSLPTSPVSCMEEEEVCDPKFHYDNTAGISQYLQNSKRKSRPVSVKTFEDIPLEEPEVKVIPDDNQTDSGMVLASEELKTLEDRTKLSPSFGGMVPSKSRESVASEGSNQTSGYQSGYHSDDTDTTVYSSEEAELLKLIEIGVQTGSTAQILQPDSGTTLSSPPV
The assay can be described thus: Upstate kinase panel: KDR. How it is done: as §1

In assay [5] the target is T5, IKKβ (h) (Homo sapiens, UniProt O14920).
T5 construct: purchased Upstate
T5 sequence (O14920 1-756): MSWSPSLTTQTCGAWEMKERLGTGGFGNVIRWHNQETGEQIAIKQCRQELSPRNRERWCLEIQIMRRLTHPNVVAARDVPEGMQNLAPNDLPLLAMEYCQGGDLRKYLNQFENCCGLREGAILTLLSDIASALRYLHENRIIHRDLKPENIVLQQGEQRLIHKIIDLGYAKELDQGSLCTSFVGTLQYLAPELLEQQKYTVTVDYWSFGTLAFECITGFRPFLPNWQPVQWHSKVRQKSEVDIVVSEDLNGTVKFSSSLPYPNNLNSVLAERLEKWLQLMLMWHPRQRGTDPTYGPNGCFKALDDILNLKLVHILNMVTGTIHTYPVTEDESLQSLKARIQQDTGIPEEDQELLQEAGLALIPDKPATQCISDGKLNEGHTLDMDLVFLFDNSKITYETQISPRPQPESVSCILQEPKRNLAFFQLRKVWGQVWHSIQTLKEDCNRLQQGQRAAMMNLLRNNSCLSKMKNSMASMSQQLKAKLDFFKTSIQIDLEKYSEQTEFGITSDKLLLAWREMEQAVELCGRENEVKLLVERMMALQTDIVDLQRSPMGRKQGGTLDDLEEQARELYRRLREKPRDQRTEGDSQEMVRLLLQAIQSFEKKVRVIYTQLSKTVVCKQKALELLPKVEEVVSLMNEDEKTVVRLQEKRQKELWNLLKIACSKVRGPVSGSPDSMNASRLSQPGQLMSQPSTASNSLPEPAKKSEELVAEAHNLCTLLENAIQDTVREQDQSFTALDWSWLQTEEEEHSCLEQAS
In words: Upstate kinase panel: IKKβ. As to the method:
as §1

The target in assay [6] is T6, PKBγ (h) (Homo sapiens, UniProt Q9Y243).
T6 construct: purchased Upstate
T6 sequence (Q9Y243 whole entry): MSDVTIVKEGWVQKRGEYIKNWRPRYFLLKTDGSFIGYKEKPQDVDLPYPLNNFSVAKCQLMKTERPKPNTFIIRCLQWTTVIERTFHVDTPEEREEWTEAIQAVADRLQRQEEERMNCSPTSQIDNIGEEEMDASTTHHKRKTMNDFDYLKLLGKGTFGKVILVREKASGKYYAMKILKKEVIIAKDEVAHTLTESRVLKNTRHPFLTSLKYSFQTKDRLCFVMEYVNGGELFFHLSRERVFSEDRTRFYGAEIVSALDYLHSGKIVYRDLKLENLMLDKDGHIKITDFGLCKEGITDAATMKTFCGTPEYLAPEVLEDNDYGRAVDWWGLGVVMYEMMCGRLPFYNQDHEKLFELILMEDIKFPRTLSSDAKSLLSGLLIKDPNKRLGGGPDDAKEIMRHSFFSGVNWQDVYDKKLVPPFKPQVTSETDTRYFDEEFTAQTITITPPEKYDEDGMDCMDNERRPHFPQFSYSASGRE
In words: Upstate kinase panel: PKBγ. As to the method: as §1

Assay [7] addresses T7, JAK3 (h) (Homo sapiens, UniProt P52333).
T7 construct: purchased Upstate
T7 sequence (P52333 1-1124): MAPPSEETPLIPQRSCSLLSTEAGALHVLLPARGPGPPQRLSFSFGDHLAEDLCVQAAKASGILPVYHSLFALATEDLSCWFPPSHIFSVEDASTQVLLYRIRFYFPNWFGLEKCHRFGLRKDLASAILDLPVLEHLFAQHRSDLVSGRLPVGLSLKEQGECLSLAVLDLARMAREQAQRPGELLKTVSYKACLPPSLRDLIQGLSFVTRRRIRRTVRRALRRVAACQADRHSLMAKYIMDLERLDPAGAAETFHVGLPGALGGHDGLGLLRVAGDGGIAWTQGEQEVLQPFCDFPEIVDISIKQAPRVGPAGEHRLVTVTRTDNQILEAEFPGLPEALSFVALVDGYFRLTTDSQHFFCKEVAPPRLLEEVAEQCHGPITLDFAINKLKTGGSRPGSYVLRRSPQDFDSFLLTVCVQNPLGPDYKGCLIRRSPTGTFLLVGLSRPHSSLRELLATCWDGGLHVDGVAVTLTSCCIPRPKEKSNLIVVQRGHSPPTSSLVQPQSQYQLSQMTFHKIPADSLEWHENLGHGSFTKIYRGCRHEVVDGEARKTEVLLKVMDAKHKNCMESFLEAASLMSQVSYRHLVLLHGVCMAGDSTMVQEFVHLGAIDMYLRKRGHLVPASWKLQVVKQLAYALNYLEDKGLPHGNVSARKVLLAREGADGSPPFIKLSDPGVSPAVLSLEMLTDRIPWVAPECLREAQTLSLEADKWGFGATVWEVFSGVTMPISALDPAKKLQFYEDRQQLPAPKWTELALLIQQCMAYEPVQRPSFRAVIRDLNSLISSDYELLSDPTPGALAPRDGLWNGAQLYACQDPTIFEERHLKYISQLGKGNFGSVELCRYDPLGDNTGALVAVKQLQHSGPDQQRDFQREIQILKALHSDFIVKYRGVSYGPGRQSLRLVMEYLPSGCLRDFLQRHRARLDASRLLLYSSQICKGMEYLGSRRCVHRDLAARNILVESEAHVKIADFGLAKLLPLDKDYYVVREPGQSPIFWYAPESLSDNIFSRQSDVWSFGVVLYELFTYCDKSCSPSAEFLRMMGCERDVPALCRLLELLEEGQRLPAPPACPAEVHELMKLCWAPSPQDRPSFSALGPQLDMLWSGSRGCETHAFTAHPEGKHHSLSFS
The assay can be described thus: Upstate kinase panel: JAK3. As to the method: as §1

Setting [8] is: compound 20 μM, 10 μM ATP, read-out: % inhibition at 20 μMol.
Where [9] appears, read: compound 10 μM, 10 μM ATP, read-out: % inhibition at 10 μMol.
The mark [10] stands for this setting: compound 1 μM, ATP (10), read-out: % inhibition at 1 μMol.
Setting [11] is: compound 1 μM, ATP (200), read-out: % inhibition at 1 μMol.

T2 sequence (P10721 26-976): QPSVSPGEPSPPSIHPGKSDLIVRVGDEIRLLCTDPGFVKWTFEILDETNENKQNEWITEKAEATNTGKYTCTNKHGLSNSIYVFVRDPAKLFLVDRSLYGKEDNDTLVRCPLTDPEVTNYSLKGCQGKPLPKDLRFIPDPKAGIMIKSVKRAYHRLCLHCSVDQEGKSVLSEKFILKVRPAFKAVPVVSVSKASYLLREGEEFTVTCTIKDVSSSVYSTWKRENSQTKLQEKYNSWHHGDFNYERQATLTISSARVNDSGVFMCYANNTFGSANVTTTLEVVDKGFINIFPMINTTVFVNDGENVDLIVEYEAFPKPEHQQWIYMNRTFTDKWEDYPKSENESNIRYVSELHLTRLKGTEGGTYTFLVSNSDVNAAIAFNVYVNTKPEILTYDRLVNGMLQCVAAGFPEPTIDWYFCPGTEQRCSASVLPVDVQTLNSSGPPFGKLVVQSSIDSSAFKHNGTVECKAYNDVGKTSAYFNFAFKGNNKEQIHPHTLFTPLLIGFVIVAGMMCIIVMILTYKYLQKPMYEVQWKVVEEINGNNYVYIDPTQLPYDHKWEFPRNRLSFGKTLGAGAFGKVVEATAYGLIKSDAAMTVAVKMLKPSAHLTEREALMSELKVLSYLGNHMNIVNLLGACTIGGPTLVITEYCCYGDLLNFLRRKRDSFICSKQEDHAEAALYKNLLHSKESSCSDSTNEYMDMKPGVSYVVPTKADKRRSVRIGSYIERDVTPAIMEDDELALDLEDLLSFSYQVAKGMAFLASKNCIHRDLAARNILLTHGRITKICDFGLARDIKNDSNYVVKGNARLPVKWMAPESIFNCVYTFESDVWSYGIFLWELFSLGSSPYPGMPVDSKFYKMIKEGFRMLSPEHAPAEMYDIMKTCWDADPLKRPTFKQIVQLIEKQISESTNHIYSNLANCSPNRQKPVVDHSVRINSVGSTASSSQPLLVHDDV
T1 sequence (P00533 25-1210): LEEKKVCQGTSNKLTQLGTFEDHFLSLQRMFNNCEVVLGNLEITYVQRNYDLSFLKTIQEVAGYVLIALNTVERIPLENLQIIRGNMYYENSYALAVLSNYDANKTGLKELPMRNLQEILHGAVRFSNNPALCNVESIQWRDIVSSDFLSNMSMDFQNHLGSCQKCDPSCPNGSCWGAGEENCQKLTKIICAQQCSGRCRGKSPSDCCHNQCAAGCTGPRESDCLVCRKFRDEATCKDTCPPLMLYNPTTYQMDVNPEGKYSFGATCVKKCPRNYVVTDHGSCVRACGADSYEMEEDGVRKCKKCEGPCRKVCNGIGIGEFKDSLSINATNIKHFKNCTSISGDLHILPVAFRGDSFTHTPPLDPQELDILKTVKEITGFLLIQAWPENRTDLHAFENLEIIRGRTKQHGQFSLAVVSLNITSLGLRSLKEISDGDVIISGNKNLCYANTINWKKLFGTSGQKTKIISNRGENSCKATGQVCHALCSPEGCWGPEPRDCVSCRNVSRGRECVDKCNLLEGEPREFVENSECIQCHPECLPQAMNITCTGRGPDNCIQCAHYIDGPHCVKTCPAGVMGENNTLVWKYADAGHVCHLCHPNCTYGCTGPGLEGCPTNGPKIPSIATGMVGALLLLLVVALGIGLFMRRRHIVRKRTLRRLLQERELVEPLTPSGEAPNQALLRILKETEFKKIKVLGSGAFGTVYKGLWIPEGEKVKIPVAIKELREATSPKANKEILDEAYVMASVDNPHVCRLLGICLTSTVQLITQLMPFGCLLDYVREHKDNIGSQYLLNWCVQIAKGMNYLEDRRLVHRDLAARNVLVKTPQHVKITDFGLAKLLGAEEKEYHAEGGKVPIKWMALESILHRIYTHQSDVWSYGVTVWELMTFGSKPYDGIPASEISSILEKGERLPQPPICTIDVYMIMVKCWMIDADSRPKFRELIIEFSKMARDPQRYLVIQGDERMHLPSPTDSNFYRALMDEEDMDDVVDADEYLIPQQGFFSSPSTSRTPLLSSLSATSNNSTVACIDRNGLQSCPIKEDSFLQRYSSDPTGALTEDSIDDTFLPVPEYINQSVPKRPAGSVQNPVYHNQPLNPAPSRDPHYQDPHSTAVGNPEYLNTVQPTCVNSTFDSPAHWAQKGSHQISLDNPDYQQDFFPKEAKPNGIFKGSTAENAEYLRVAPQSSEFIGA

In general, inhibition refers to the change of the read-out against control, counted positive when it falls. Usually IC50 stands for the concentration that gives 50% inhibition. On to `CCOC(=O)c1c[nH]c2c(=O)[nH]c3ccccc3c12` [Compound 1, 4-Oxo-4,5-dihydro-3H-pyrrolo[2,3-c]quinoline-1-ethyl carboxylate], for which the inhibition at 20 µM in assay [1] (setting [8]) amounted to 19%; in assay [2] (setting [8]) it was 20%; in assay [4] (setting [8]), 100%; in assay [5] (setting [8]), 22%; in assay [6] (setting [8]) it was 5%; in assay [7] (setting [8]), 58%. For the same compound, in assay [3], the half-maximal inhibitory concentration (IC50) lay within 1000 to 10000 nM.
For the compound `CCOC(=O)c1c[nH]c2c(=O)[nH]c3ccc(S(=O)(=O)Nc4ccc(F)cc4)cc3c12` [Compound 12, 8-(4-Fluorophenylsulfamoyl)-4-oxo-4,5-dihydro-3H-pyrrolo[2,3-c]quinoline-1-ethyl carboxylate], the inhibition at 10 µM came to 13% in assay [1] (setting [9]); 45% in assay [2] (setting [9]); 69% in assay [4] (setting [9]); 0% in assay [5] (setting [9]); 20% in assay [6] (setting [9]); 50% in assay [7] (setting [9]). For the same compound, the IC50 in assay [3] was under 100 nM.
Turning to `CCOC(=O)c1c[nH]c2c(=O)[nH]c3ccc(-c4cccc(S(C)(=O)=O)c4)cc3c12` [Compound 238, 8-(3-Methanesulfonyl-phenyl)-4-oxo-4,5-dihydro-3H-pyrrolo[2,3-c]quinoline-1-ethyl carboxylate], the inhibition at 1 µM in assay [1] (setting [10]) was found to be 3%; in assay [2] (setting [11]), 4%; in assay [4] (compound 1 μM, ATP (90), read-out: % inhibition at 1 μMol) it was 21%; in assay [5] (setting [10]) it was 0%; in assay [6] (setting [11]), 2%; in assay [7] (setting [10]), 5%. In addition, the IC50 in assay [3] was 100 to 1000 nM.
